Reference: paper PMC10648852, “Molecular drivers of resistance to sulbactam-durlobactam in contemporary clinical isolates of Acinetobacter baumannii” (Antimicrobial Agents and Chemotherapy, 2023)
Like-named read-outs stand apart in the source and are kept apart here.

Assays:
A. baumannii PBP3 S395F = assay: Acylation rate constant (kinact/Ki), fluorescence anisotropy competition with BOCILLIN; settings: variant data from McLeod et al. (2018)
A. baumannii PBP3 S390T [1] = test system: A. baumannii PBP3 S390T; set-up: method as in McLeod et al. (2018); settings: average ± SD, ref McLeod et al. (2018); cited from earlier work
[2] = test system: isogenic A. baylyi ADP1 panel encoding wildtype or mutant PBP3; assay: Broth microdilution MIC, isogenic A. baylyi panel (PBP3 variants with or without overexpressed β-lactamases); format: cell-based; settings: for increase in MIC values in the presence of β-lactamase: wildtype PBP3 strain
Procedure: To understand the effect of PBP3 variants on whole cell activity in the absence of other resistance determinants, the MIC values of sulbactam, SUL-DUR and comparator β-lactams were measured against an isogenic A. baylyi panel engineered to contain individual strains in which the endogenous PBP3 was replaced with the variant of interest.
Each of the A. baylyi panel members were then transformed with plasmids that constitutively expressed five distinct, representative β-lactamases commonly found in Acinetobacter clinical isolates (TEM-1, ADC-30, OXA-23, OXA-24 or OXA-66) and evaluated for changes in antibiotic susceptibility. […] . […] .
The isogenic A. baylyi panel used for chromosomal expression of various PBP3 mutants with or without constitutive expression of various β-lactamases were constructed as part of this study. The A. baylyi ADP1 PBP3 ORF was cloned into pUC19 with a gentamicin cassette inserted downstream of the PBP3 ORF for selection purposes. Additionally, 500 bp of flanking homology to the ADP1 genome were inserted upstream of the PBP3 ORF and downstream of the gentamicin cassette. […] Linear DNA consisting of the 500 bp upstream-PBP3-Gent-500 bp downstream fragment was cloned out of the pUC19 plasmid by PCR and used for transformation of the ADP1 strain. The strain was grown at 30°C overnight in LB medium shaking at 250 rpm. Seventy microliters of the overnight ADP1 culture were combined with 1 mL of fresh LB and 200 ng of linear DNA fragment and incubated for 5 h at 30°C and shaking at 200 rpm. Various dilutions of each culture were plated on LB agar supplemented with 10 µg/mL of gentamicin to select for transformants with successful chromosomal integrations. Integrants were verified by Sanger sequencing using purified genomic DNA.
For the constitutive expression of various β-lactamases, ORFs of bla TEM-1, bla ADC-30, bla OXA-23, bla OXA-24, and bla OXA-66 were cloned by PCR from various clinical strains that encode these genes and inserted into the pWH1266 plasmid modified to encode a kanamycin cassette for selection. These plasmids along with an empty vector were used to transform each of the A. baylyi ADP1 strains engineered above that encode wild-type PBP3 or variants. Transformations were carried out as done above with selection on LB agar supplemented with 20 µg/mL of kanamycin.
(§1) Antimicrobial susceptibility testing was performed using broth microdilution following standardized methods established by the Clinical Laboratory Standards Institute (CLSI) ([35], [36]). Quality control testing was performed as specified by CLSI using A. baumannii NCTC 13304 ([35]). MIC values were interpreted using CLSI breakpoints for all antimicrobial agents except those for which CLSI breakpoints are not available ([35]). SUL-DUR was tested as twofold dilutions of sulbactam in combination with a fixed concentration of 4 µg/mL durlobactam ([35]).

[3] = test system: 5,032 ABC clinical isolates; settings: 5,032 ABC clinical isolates 2016-2021; durlobactam fixed at 4 µg/mL in SUL-DUR; cited from earlier work
A. baumannii PBP3 S390T [4] = assay: Acylation rate constant (kinact/Ki), fluorescence anisotropy competition with BOCILLIN; settings: variant data from McLeod et al. (2018)
[5] = test system: A. baumannii KAB1544 and efflux overexpression mutants; assay: Broth microdilution MIC, isogenic A. baumannii overexpression efflux mutants; format: cell-based; settings: for MIC: Acinetobacter baumannii; for change in MIC values relative to the parent strain: most of the AdeR and AdeS mutants (AdeABC overexpression), KAB1544
Procedure: (§2) To further assess the role of efflux in SUL-DUR activity against Acinetobacter spp., two panels of A. baumannii isogenic strains were tested. The first consisted of 7 members of an A. baumannii transposon library ([28]) with single gene disruptions in the adeABC, adeIJK, or adeT loci as compared to the parent strain, AB5075. […] This panel of strains consists of four different point mutants in AdeR and five different point mutants in AdeS, which result in the upregulation of AdeABC expression. In addition, this panel contains chromosomal deletions of adeL and adeN, which result in overexpression of AdeFGH and AdeIJK, respectively ([29]).
In contrast, sulbactam, SUL-DUR, and imipenem MIC values were unaffected by these mutants (Table 4).
(§3) The AB5075 parent strain as well as transposon interrupted AdeABC, AdeIJK, and AdeT were purchased from the Manoil laboratory at the University of Washington from their arrayed transposon mutant collection ([28]). The KAB1544 parent as well as efflux pump regulator mutants and deletions were constructed as previously described ([29]).
as §1

[6] = test system: A. baumannii AB5075 and transposon mutants in efflux genes; assay: Broth microdilution MIC, isogenic A. baumannii transposon mutants in efflux genes; format: cell-based; settings: for In vitro activity (MIC): tested in duplicate; for MIC changes as compared to the parent strain: all tested efflux gene disruptions, AB5075
Procedure: as §2
The parent and each isogenic mutant strain in both panels was measured for susceptibility to sulbactam, durlobactam, SUL-DUR, imipenem, and gentamicin. […].
as §3, §1

[7] = Acinetobacter baylyi, A. baylyi, PBP3 H370Y, overexpressed ADC-30
[8] = Acinetobacter baylyi, A. baylyi, PBP3 H370Y, overexpressed OXA-23
[9] = Acinetobacter baylyi, A. baylyi, PBP3 H370Y, overexpressed OXA-24
[10] = Acinetobacter baylyi, A. baylyi, PBP3 H370Y, overexpressed OXA-66
[11] = Acinetobacter baylyi, A. baylyi, PBP3 H370Y, overexpressed TEM-1
[12] = Acinetobacter baylyi, A. baylyi, PBP3 H370Y, β-lactamase None (empty vector)
[13] = Acinetobacter baylyi, A. baylyi, PBP3 Wildtype, overexpressed ADC-30, read-out: MIC
[14] = Acinetobacter baylyi, A. baylyi, PBP3 Wildtype, overexpressed OXA-23, read-out: MIC
[15] = Acinetobacter baylyi, A. baylyi, PBP3 Wildtype, overexpressed OXA-24, read-out: MIC
[16] = Acinetobacter baylyi, A. baylyi, PBP3 Wildtype, overexpressed OXA-66, read-out: MIC
[17] = Acinetobacter baylyi, A. baylyi, PBP3 Wildtype, overexpressed TEM-1, read-out: MIC
[18] = Acinetobacter baylyi, A. baylyi, PBP3 Wildtype, β-lactamase None (empty vector), read-out: MIC
[19] = AdeR A91V, AdeABC overexpressed, read-out: MIC
[20] = AdeR D20N, AdeABC overexpressed, read-out: MIC
[21] = AdeR E219A, AdeABC overexpressed, read-out: MIC
[22] = AdeR P116L, AdeABC overexpressed, read-out: MIC
[23] = AdeS A94V, AdeABC overexpressed, read-out: MIC
[24] = AdeS G30D, AdeABC overexpressed, read-out: MIC
[25] = AdeS G103D, AdeABC overexpressed, read-out: MIC
[26] = AdeS R152K, AdeABC overexpressed, read-out: MIC
[27] = AdeS T153M, AdeABC overexpressed, read-out: MIC
[28] = Parent (KAB1544), no efflux pump overexpressed, read-out: MIC

For `C[C@@H](O)[C@H]1C(=O)N2C(C(=O)O)=C(S[C@@H]3CN[C@H](C(=O)N(C)C)C3)[C@H](C)[C@H]12` [meropenem], the “% WT” value (A. baumannii PBP3 S395F) is listed as 30%, the “k inact/K i” value (A. baumannii PBP3 S390T [1]) is listed as 16,000 ± 6,000 ([3]) M^-1s^-1 and the MIC [2, 7] is listed as 0.06 µg/mL. The MIC [2, 8] was 8 µg/mL, the MIC [2, 9] was > 8 µg/mL and the MIC [2, 10] was 0.5 µg/mL. The MIC [2, 11] was 0.06 µg/mL, the MIC [2, 12] was 0.06 µg/mL and the MIC [2, 13] was 0.13 µg/mL. For the same molecule, the MIC [2, 14] was 8 µg/mL, the MIC [2, 15] was > 8 µg/mL and the MIC [2, 16] was 1 µg/mL. For the same molecule, the MIC [2, 17] was 0.13 µg/mL, the MIC [2, 18] was 0.06 µg/mL and the “increase in MIC values in the presence of β-lactamase” value (from here on “increase in MIC values”) ([2]; OXA-23, OXA-24 and OXA-66) was ≥ 4 fold.

In the case of `CC1(C)[C@H](C(=O)O)N2C(=O)C[C@H]2S1(=O)=O` [sulbactam], the MIC50 [3] is given as 8 µg/mL, the MIC90 [3] is given as 32 µg/mL and the “% WT” value (A. baumannii PBP3 S395F) is given as 4.2%. For the same molecule, the “k inact/K i” value (A. baumannii PBP3 S390T [1]) was 0.03 ± 0.02 ([3]) M^-1s^-1, the “% WT” value (A. baumannii PBP3 S390T [4]) was 0.2% and the MIC [5, 19] was 1 µg/mL. It also gave an MIC [5, 20] of 1 µg/mL, an MIC [5, 21] of 2 µg/mL and an MIC [5, 22] of 1 µg/mL. It also gave an MIC [5, 23] of 1 µg/mL, an MIC [5, 24] of 1 µg/mL and an MIC [5, 25] of 2 µg/mL. For the same molecule, the MIC [5, 26] was 1 µg/mL, the MIC [5, 27] was 1 µg/mL and the MIC [5, 28] was 2 µg/mL. For the same molecule, the MIC ([5]; ΔadeL, AdeFGH overexpressed) was 1 µg/mL, the MIC ([5]; ΔadeN, AdeIJK overexpressed) was 2 µg/mL and the “change in MIC values relative to the parent strain” value [5] was “unaffected”. The MIC [2, 7] was 2 µg/mL, the MIC [2, 8] was > 64 µg/mL and the MIC [2, 9] was > 64 µg/mL. For the same molecule, the MIC [2, 10] was 4 µg/mL, the MIC [2, 11] was 4 µg/mL and the MIC [2, 12] was 8 µg/mL. For the same molecule, the MIC [2, 13] was 2 µg/mL, the MIC [2, 14] was > 64 µg/mL and the MIC [2, 15] was 16 µg/mL. For the same molecule, the MIC [2, 16] was 8 µg/mL, the MIC [2, 17] was 16 µg/mL and the MIC [2, 18] was 4 µg/mL. The “increase in MIC values” value ([2]; TEM-1, OXA-23 and OXA-24) was ≥ 4 fold, the MIC ([2]; {}) was >64 µg/mL and the In vitro activity (MIC) ([6]; Parent (AB5075)) was 64 µg/mL. For the same molecule, the In vitro activity (MIC) ([6]; adeA::tn in AB5075) was 32 µg/mL, the In vitro activity (MIC) ([6]; adeB::tn in AB5075) was 32 µg/mL and the In vitro activity (MIC) ([6]; adeC::tn in AB5075) was 64 µg/mL. For the same molecule, the In vitro activity (MIC) ([6]; adeI::tn in AB5075) was 32 µg/mL, the In vitro activity (MIC) ([6]; adeJ::tn in AB5075) was 64 µg/mL and the In vitro activity (MIC) ([6]; adeK::tn in AB5075) was 32 µg/mL. For the same molecule, the In vitro activity (MIC) ([6]; adeT::tn in AB5075) was 64 µg/mL and the “MIC changes as compared to the parent strain” value [6] was ≤ 2 fold.

In the case of `C[C@@H](O)[C@H]1C(=O)N2C(C(=O)O)=C(SCCN=CN)C[C@H]12` [imipenem], the “% WT” value (A. baumannii PBP3 S395F) is given as 2.0%, the “k inact/K i” value (A. baumannii PBP3 S390T [1]) is given as 540 ± 40 ([3]) M^-1s^-1 and the “% WT” value (A. baumannii PBP3 S390T [4]) is given as 120%. It also gave an MIC [5, 19] of 0.5 µg/mL, an MIC [5, 20] of 0.5 µg/mL and an MIC [5, 21] of 0.25 µg/mL. The MIC [5, 22] was 0.5 µg/mL, the MIC [5, 23] was 0.5 µg/mL and the MIC [5, 24] was 0.5 µg/mL. For the same molecule, the MIC [5, 25] was 0.25 µg/mL, the MIC [5, 26] was 0.5 µg/mL and the MIC [5, 27] was 0.5 µg/mL. It also gave an MIC [5, 28] of 0.25 µg/mL, an MIC ([5]; ΔadeL, AdeFGH overexpressed) of 0.25 µg/mL and an MIC ([5]; ΔadeN, AdeIJK overexpressed) of 0.25 µg/mL. For the same molecule, the “change in MIC values relative to the parent strain” value [5] was “unaffected”, the MIC [2, 7] was 0.03 µg/mL and the MIC [2, 8] was 4 µg/mL. For the same molecule, the MIC [2, 9] was > 8 µg/mL, the MIC [2, 10] was 0.06 µg/mL and the MIC [2, 11] was 0.03 µg/mL. It also gave an MIC [2, 12] of 0.03 µg/mL, an MIC [2, 13] of 0.13 µg/mL and an MIC [2, 14] of 8 µg/mL. It also gave an MIC [2, 15] of 8 µg/mL, an MIC [2, 16] of 0.13 µg/mL and an MIC [2, 17] of 0.03 µg/mL. For the same molecule, the MIC [2, 18] was 0.03 µg/mL, the “increase in MIC values” value ([2]; ADC-30, OXA-23, OXA-24 and OXA-66) was ≥ 4 fold and the In vitro activity (MIC) ([6]; Parent (AB5075)) was 16 µg/mL. For the same molecule, the In vitro activity (MIC) ([6]; adeA::tn in AB5075) was 8 µg/mL, the In vitro activity (MIC) ([6]; adeB::tn in AB5075) was 8 µg/mL and the In vitro activity (MIC) ([6]; adeC::tn in AB5075) was 16 µg/mL. For the same molecule, the In vitro activity (MIC) ([6]; adeI::tn in AB5075) was 16 µg/mL, the In vitro activity (MIC) ([6]; adeJ::tn in AB5075) was 16 µg/mL and the In vitro activity (MIC) ([6]; adeK::tn in AB5075) was 16 µg/mL. The In vitro activity (MIC) ([6]; adeT::tn in AB5075) was 8 µg/mL and the “MIC changes as compared to the parent strain” value [6] was ≤ 2 fold.
